Earlier results in US12059506B2, “Coated implantable device” (NOBIL BIO RICERCHE S.R.L., priority 2017, dated 2024).

Details: aqueous phase

Which “solubility in water” value does the source give for `C[C@@H]1O[C@@H](Oc2c(-c3ccc(O)c(O)c3)oc3cc(O)cc(O)c3c2=O)[C@H](O)[C@H](O)[C@H]1O` [quercitrin] here?
The value was “insoluble”.
